Active and inactive are the calls of the source. The rule behind the calls is not given here.
Key:
[1] = Drug uptake in BALB/c nude mouse tumor xenografted with human A549 cells assessed as increase in fluorescence signals measured for 2 days; assay type: ADME, tissue-based, Neoplasm; details: 48 h, time 2 day
[2] = Drug uptake in BALB/c mouse tumor xenografted with human A549 cells at 10 nmol measured for 8 hrs in presence of folic acid; assay type: ADME, tissue-based, Neoplasm
[3] = Acute toxicity in ICR mouse assessed as spleen damage at 10 micromol/ml measured for 14 days by H and E staining based analysis; assay type: tissue-based; details: in vivo, 336 h, dose 10 µmol/ml, time 14 day
[4] = Elimination half life in BALB/c mouse at 10 nmol measured for 8 hrs; assay type: ADME; details: in vivo, read-out: beta t1/2 (converted)
HUVEC = assay: Cytotoxicity against human HUVEC cells assessed as cell growth inhibition incubated for 24 hrs by CCK-8 assay; assay type: toxicity, cell-based
KB [5] = assay: Binding affinity to Folate receptor in human KB cells assessed as relative fluorescence intensity preincubated with compound for 1 hr followed by folic acid addition and measured after 1 hr by flow cytometry analysis; assay type: cell-based; details: time 2.0 hrs
[6] = Ratio of biodistribution in tumor to lung of human KB cell xenografted in BALB/c mouse at 10 nmol measured for 8 hrs; assay type: ADME, organism-based; details: in vivo
[7] = Ratio of biodistribution in tumor to liver of human KB cell xenografted in BALB/c mouse at 10 nmol measured for 8 hrs; assay type: ADME, organism-based; details: in vivo
[8] = Drug uptake in BALB/c mouse tumor xenografted with human KB cells at 10 nmol measured for 8 hrs; assay type: ADME, tissue-based, Neoplasm; details: in vivo
[9] = Acute toxicity in ICR mouse assessed as effect on food intake at 10 micromol/ml measured for 14 days; details: in vivo, 336 h, dose 10 µmol/ml, time 14 day
[10] = Acute toxicity in ICR mouse assessed as lung damage at 10 micromol/ml measured for 14 days by H and E staining based analysis; assay type: tissue-based; details: in vivo, 336 h, dose 10 µmol/ml, time 14 day
Folate receptor beta = Folate receptor beta (Mus musculus, UniProt Q05685); assay: Binding affinity to Folate receptor beta in mouse RAW264.7 cells assessed as dissociation constant; assay type: cell-based
Folate receptor beta, sequence (Q05685 whole entry): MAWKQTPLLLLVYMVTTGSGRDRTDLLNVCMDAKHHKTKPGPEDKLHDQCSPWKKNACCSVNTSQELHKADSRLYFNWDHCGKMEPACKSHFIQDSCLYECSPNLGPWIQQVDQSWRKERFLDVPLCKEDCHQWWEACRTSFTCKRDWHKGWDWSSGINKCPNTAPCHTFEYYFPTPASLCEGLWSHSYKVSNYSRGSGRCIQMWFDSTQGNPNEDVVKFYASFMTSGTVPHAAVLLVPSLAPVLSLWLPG

[11] = Acute toxicity in ICR mouse assessed as kidney damage at 10 micromol/ml measured for 14 days by H and E staining based analysis; assay type: tissue-based; details: in vivo, 336 h, dose 10 µmol/ml, time 14 day
[12] = Acute toxicity in ICR mouse assessed as animal death at 10 micromol/ml measured for 14 days; details: in vivo, 336 h, dose 10 µmol/ml, time 14 day
Folate receptor alpha = Folate receptor alpha (Homo sapiens, UniProt P15328); assay: Binding affinity to Folate receptor alpha in human KB cells assessed as dissociation constant; assay type: cell-based
Folate receptor alpha, sequence (P15328 whole entry): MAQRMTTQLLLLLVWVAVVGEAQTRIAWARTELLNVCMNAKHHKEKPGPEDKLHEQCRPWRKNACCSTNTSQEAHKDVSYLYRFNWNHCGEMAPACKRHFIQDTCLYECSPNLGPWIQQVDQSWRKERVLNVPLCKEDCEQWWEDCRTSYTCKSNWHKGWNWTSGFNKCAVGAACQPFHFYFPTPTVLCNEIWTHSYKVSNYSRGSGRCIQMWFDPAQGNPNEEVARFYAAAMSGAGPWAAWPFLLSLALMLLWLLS

[13] = Acute toxicity in ICR mouse assessed as effect on body weight at 10 micromol/ml measured for 14 days; details: in vivo, 336 h, dose 10 µmol/ml, time 14 day
[14] = Drug uptake in BALB/c nude mouse tumor xenografted with human KB cells assessed as increase in fluorescence signals measured for 2 days; assay type: ADME, tissue-based, Neoplasm; details: in vivo, 48 h, time 2 day
[15] = Drug uptake in BALB/c mouse tumor xenografted with human KB cells at 10 nmol measured for 8 hrs in presence of folic acid; assay type: ADME, tissue-based, Neoplasm; details: in vivo
[16] = Acute toxicity in ICR mouse assessed as heart damage at 10 micromol/ml measured for 14 days by H and E staining based analysis; assay type: tissue-based; details: in vivo, 336 h, dose 10 µmol/ml, time 14 day
[17] = Ratio of biodistribution in tumor to heart of human KB cell xenografted in BALB/c mouse at 10 nmol measured for 8 hrs; assay type: ADME, organism-based; details: in vivo
[18] = Half life in BALB/c mouse at 10 nmol measured for 8 hrs; assay type: ADME; details: in vivo
KB [19] = assay: Binding affinity to Folate receptor in human KB cells assessed as relative fluorescence intensity incubated for 1 hr by flow cytometry analysis; assay type: cell-based
[20] = Acute toxicity in ICR mouse assessed as liver damage at 10 micromol/ml measured for 14 days by H and E staining based analysis; assay type: tissue-based; details: in vivo, 336 h, dose 10 µmol/ml, time 14 day
KB [21] = assay: Binding affinity to Folate receptor in human KB cells assessed as increase in fluorescence intensity incubated for 2 hrs by fluorescence microscopic analysis; assay type: cell-based
[22] = Drug uptake in human A549 cells assessed as increase in fluorescence intensity in presence of folic acid by fluorescence microscopic analysis; assay type: ADME, cell-based
[23] = Drug uptake in mouse RAW264.7 cells assessed as increase in fluorescence intensity in presence of folic acid by fluorescence microscopic analysis; assay type: ADME, cell-based
[24] = Drug uptake in BALB/c mouse intestine xenografted with human KB cells at 10 nmol measured for 8 hrs; assay type: ADME, tissue-based; details: in vivo
[25] = Drug uptake in BALB/c mouse lung xenografted with human KB cells at 10 nmol measured for 8 hrs; assay type: ADME, tissue-based; details: in vivo
KB [26] = assay: Binding affinity to Folate receptor in human KB cells assessed as relative fluorescence intensity incubated for compound for 1 hr by flow cytometry analysis; assay type: cell-based
[27] = Ex vivo biodistribution in BALB/c mouse tumor of human KB cells expressing folate receptor alpha measured for 8 hrs by imaging analysis; assay type: ADME, organism-based, Neoplasm
[28] = Drug uptake in BALB/c mouse liver xenografted with human KB cells at 10 nmol measured for 8 hrs; assay type: ADME, tissue-based; details: in vivo
[29] = Drug uptake in BALB/c mouse heart xenografted with human KB cells at 10 nmol measured for 8 hrs; assay type: ADME, tissue-based; details: in vivo
[30] = Drug uptake in BALB/c mouse spleen xenografted with human KB cells at 10 nmol measured for 8 hrs; assay type: ADME, tissue-based; details: in vivo
[31] = Drug uptake in BALB/c mouse kidney xenografted with human KB cells at 10 nmol measured for 8 hrs; assay type: ADME, tissue-based; details: in vivo
[32] = Drug uptake in BALB/c mouse stomach xenografted with human KB cells at 10 nmol measured for 8 hrs; assay type: ADME, tissue-based; details: in vivo

| Structure (SMILES) | Activity (HUVEC) | Activity (KB [5]) | Kd (Folate receptor beta) [nM] | Kd (Folate receptor alpha) [nM] | Drug uptake [14] | Activity (KB [19]) | Drug uptake [24] | Drug uptake [25] | Activity (KB [26]) | Drug uptake [27] | Drug uptake [28] | Drug uptake [29] | Drug uptake [30] | Drug uptake [31] | Drug uptake [32] | further results |
| --- | --- | --- | --- | --- | --- | --- | --- | --- | --- | --- | --- | --- | --- | --- | --- | --- |
| CC1(C)C(/C=C/C2=C(Oc3ccc(C[C@H](NC(=O)c4ccc(CCCCc5cc6c(=O)[nH]c(N)nc6[nH]5)cc4)C(=O)O)cc3)C(=C/C=C3/N(CCCCS(=O)(=O)O)c4ccccc4C3(C)C)/CCC2)=[N+](CCCCS(=O)(=O)[O-])c2ccccc21 | Non-Toxic | Active | 16 | 14.2 | Active | Active | – | – | – | – | – | – | – | – | – | Drug uptake [1]: Not Active; Drug uptake [2]: Not Active; Activity [3]: Non-Toxic; half-life [4]: 60 min; Ratio [6]: 8; Ratio [7]: 2; Drug uptake [8]: Active; Activity [9]: Non-Toxic; Activity [10]: Non-Toxic; Activity [11]: Non-Toxic; Activity [12]: Non-Toxic; Activity [13]: Non-Toxic; Drug uptake [15]: Not Active; Activity [16]: Non-Toxic; Ratio [17]: 13; half-life [18]: 15 min; Activity [20]: Non-Toxic |
| CC1(C)C(/C=C/C2=C(Oc3ccc(C[C@H](NC(=O)CNC(=O)Cc4cc5c(=O)[nH]c(N)nc5[nH]4)C(=O)O)cc3)C(=C/C=C3/N(CCCCS(=O)(=O)O)c4ccccc4C3(C)C)/CCC2)=[N+](CCCCS(=O)(=O)[O-])c2ccccc21 | Non-Toxic | Active | 26.1 | 39.8 | Active | – | Not Active | Not Active | Active | Active | Not Active | Not Active | Not Active | Not Active | Not Active | Activity (KB [21]): Active; Drug uptake [22]: Not Active; Drug uptake [23]: Not Active |
| CC1(C)C(/C=C/C2=C(SC[C@@H](NC(=O)CC[C@H](NC(=O)CNC(=O)Cc3cc4c(=O)[nH]c(N)nc4[nH]3)C(=O)O)C(=O)O)C(=C/C=C3/N(CCCCS(=O)(=O)O)c4ccccc4C3(C)C)/CCC2)=[N+](CCCCS(=O)(=O)[O-])c2ccccc21 | Non-Toxic | – | 47.9 | 61.2 | – | – | Not Active | Not Active | inactive | Active | Not Active | Not Active | Not Active | Not Active | Not Active | – |
| CC1(C)C(/C=C/C2=C(SC[C@H](NC(=O)CNC(=O)Cc3cc4c(=O)[nH]c(N)nc4[nH]3)C(=O)O)C(=C/C=C3/N(CCCCS(=O)(=O)O)c4ccccc4C3(C)C)/CCC2)=[N+](CCCCS(=O)(=O)[O-])c2ccccc21 | Non-Toxic | – | 58.9 | 81.9 | – | – | Not Active | Not Active | inactive | Active | Not Active | Not Active | Not Active | Not Active | Not Active | – |
| CC1(C)C(/C=C/C2=C(Oc3ccc(C[C@H](NC(=O)c4ccc(NCc5cnc6nc(N)[nH]c(=O)c6n5)cc4)C(=O)O)cc3)C(=C/C=C3/N(CCCCS(=O)(=O)O)c4ccccc4C3(C)C)/CCC2)=[N+](CCCCS(=O)(=O)[O-])c2ccccc21 | Non-Toxic | – | 20.9 | 22.1 | Active | Active | – | – | – | – | – | – | – | – | – | – |
| CC1(C)C(/C=C/C2=C(Oc3ccc(C[C@H](NC(=O)c4ccc(CCCCc5cc6c(=O)[nH]c(N)nc6[nH]5)s4)C(=O)O)cc3)C(=C/C=C3/N(CCCCS(=O)(=O)O)c4ccccc4C3(C)C)/CCC2)=[N+](CCCCS(=O)(=O)[O-])c2ccccc21 | Non-Toxic | Active | 11 | 10.3 | Active | Active | – | – | – | – | Active | – | – | – | – | – |
